In patent US9617242B2, “Histone demethylase inhibitors” (priority 2012, dated 2017):
Counter-ions that a name gives are not always drawn. Like-named read-outs stand apart in the source and are kept apart here.

Tests used:
KDM5A/B = experiment: In vitro cell-based assay: tri-methyl H3K4 immuno-blotting in ZR-75-1 breast cancer cells
Procedure: This quantitative immuno-blotting assay measures the amount tri-methylated histone H3 at amino acid Lysine number 4, a specific substrate […] of the direct enzymatic activity of the histone demethylases KDM5A and KDM5B from extracts of the ZR-75-1 breast cancer cell line.
This assay is a fluorometric immunoassay for the quantification of tri-methyl H3K4 extracted from cells treated with test compound and is used as a measure of the cellular inhibition of KDM5A/B.
Extracts were prepared containing all of the cellular histone material using detergent based lysis and sonication methods. These lysates were subsequently normalized for total protein content using a colorimetric bicinchonic acid assay (MicroBCA Pierce/Thermo Scientific). Normalized cell extracts were then subjected to typical immuno-blotting procedures using NuPage reagents (Life Technologies). Electrophoretically separated histones were then transferred and immobilized using polyvinylidene difluoride membrane (Immobilon-FL Millipore). The amount of tri-methylated lysine 4 of histone H3 was detected using an antibody specific to the tri-methylated state (Cell Signaling Technologies) and quantified on an infrared imager using a densitometry software package (Odyssey CLx, Image Studio, Li-Cor). This background subtracted densitometry value was reported as a ration of the GAPDH amount for that sample and then calculated as a percent of the DMSO treated sample. The software package XL-fit (IDBS) was then used to calculate a relative IC50 value for the dilution series of a given test compound according to the equation: fit=(D+((Vmax*(x^n))/((x^n)+(Km^n)))).

Jarid1A = Jarid1A (Homo sapiens (Human), UniProt P29375); experiment: Jarid1A in vitro enzyme inhibition assay (TR-FRET); assay type: biochemical
Jarid1B = Jarid1B (Homo sapiens (Human), UniProt Q9UGL1); experiment: Jarid1B in vitro enzyme inhibition assay (TR-FRET); assay type: biochemical
[1] = 72 hours, read-out: Cellular IC50
[2] = read-out: Cellular IC50, 72 hours

Sequence of Jarid1A (P29375 1-1090): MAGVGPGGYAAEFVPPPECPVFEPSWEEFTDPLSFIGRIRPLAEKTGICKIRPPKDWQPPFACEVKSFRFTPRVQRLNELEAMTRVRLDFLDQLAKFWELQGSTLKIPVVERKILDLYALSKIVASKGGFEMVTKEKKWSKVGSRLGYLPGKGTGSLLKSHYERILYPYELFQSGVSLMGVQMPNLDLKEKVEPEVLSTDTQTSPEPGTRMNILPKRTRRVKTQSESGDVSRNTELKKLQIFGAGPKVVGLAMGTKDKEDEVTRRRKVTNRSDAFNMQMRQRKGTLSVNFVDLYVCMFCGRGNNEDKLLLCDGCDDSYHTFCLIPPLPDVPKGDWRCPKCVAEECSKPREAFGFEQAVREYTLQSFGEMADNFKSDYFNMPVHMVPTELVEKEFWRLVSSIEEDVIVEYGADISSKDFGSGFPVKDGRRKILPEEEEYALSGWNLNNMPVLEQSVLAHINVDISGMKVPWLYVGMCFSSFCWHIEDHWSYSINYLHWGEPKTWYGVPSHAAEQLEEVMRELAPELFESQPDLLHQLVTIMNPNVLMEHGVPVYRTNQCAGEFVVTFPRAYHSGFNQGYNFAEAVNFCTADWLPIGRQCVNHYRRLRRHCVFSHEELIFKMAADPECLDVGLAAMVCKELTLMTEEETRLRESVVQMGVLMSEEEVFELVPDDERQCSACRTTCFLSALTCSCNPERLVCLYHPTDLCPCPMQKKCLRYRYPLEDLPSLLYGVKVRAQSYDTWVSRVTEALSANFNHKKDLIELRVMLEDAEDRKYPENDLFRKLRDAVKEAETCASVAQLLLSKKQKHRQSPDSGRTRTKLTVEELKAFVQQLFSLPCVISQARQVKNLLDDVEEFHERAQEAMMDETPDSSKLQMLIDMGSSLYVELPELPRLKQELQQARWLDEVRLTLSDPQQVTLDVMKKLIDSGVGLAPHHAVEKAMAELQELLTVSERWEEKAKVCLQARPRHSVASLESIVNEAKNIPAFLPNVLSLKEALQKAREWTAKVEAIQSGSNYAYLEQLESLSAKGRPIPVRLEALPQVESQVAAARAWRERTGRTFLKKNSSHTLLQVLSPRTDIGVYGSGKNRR
Sequence of Jarid1B (Q9UGL1 2-751): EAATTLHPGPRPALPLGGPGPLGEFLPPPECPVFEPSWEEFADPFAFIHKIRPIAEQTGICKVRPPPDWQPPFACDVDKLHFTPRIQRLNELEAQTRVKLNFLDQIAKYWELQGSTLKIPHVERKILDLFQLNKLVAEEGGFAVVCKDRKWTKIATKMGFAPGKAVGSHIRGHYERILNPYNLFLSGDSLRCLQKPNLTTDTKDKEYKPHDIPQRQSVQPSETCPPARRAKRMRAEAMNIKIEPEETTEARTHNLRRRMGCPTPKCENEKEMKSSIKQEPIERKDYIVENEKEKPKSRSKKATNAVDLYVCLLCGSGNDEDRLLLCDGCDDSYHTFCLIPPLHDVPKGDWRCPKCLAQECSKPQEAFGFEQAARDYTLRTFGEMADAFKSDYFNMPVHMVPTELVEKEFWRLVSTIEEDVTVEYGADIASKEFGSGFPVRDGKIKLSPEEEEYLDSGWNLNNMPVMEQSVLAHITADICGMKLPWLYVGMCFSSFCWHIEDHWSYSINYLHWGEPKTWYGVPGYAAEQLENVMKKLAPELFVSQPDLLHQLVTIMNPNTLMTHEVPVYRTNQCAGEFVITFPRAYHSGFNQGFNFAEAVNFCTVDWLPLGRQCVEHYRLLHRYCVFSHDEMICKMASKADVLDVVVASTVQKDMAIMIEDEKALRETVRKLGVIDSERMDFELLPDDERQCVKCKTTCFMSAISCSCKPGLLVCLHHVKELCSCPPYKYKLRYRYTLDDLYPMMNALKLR

SMILES | IC50 (KDM5A/B; [1]) | IC50 (Jarid1A) | IC50 (Jarid1B) | IC50 (KDM5A/B; [2])
Cn1nc(Nc2cnccc2C(=O)O)c2cc(Cl)ccc21 [Example 4, 3-[(5-chloro-1-methyl-1H-indazol-3-yl)amino]pyridine-4-carboxylic acid] | 100 to 1000 nM | < 100 nM | < 100 nM | 
Cc1ccc2c(Nc3cnccc3C(=O)O)nn(C)c2c1 [Example 5, 3-[(1,6-dimethyl-1H-indazol-3-yl)amino]pyridine-4-carboxylic acid] | 1000 to 10000 nM | < 100 nM | < 100 nM | 
Cn1nc(Nc2cnccc2C(=O)O)c2ccc(F)cc21 [Example 6, 3-[(6-fluoro-1-methyl-1H-indazol-3-yl)amino]pyridine-4-carboxylic acid] | 1000 to 10000 nM |  |  | 
COc1ccc2c(Nc3cnccc3C(=O)O)nn(C)c2c1 [Example 8, 3-[(6-methoxy-1-methyl-1H-indazol-3-yl)amino]pyridine-4-carboxylic acid] | 1000 to 10000 nM | < 100 nM | < 100 nM | 
CCCn1nc(Nc2cnccc2C(=O)O)c2ccccc21 [Example 9, 3-[(1-propyl-1H-indazol-3-yl)amino]pyridine-4-carboxylic acid] | 100 to 1000 nM | < 100 nM | < 100 nM | 
COCCn1nc(Nc2cnccc2C(=O)O)c2ccccc21 [Example 10, 3-{[1-(2-methoxyethyl)-1H-indazol-3-yl]amino}pyridine-4-carboxylic acid] | 1000 to 10000 nM | < 100 nM | < 100 nM | 
Cc1ccc2c(c1)c(Nc1cnccc1C(=O)O)nn2C [Example 12, 3-[(1,5-dimethyl-1H-indazol-3-yl)amino]pyridine-4-carboxylic acid] | 100 to 1000 nM |  |  | 
CCCn1nc(Nc2cnccc2C(=O)O)c2cc(F)ccc21 [Example 15, 3-[(5-fluoro-1-propyl-1H-indazol-3-yl)amino]pyridine-4-carboxylic acid] | 1000 to 10000 nM | < 100 nM | < 100 nM | 
O=C(O)c1ccncc1Nc1nn(CC2CC2)c2ccc(F)cc12 [Example 16, 3-{[1-(cyclopropylmethyl)-5-fluoro-1H-indazol-3-yl]amino}pyridine-4-carboxylic acid] | 1000 to 10000 nM | < 100 nM | < 100 nM | 
CCCCCn1nc(Nc2cnccc2C(=O)O)c2cc(F)ccc21 [Example 18, 3-[(5-fluoro-1-pentyl-1H-indazol-3-yl)amino]pyridine-4-carboxylic acid] | 1000 to 10000 nM | < 100 nM | < 100 nM | 
O=C(O)c1ccncc1Nc1nn(CCc2ccccc2)c2ccc(F)cc12 [Example 19, 3-{[5-fluoro-1-(2-phenethyl)-1H-indazol-3-yl]amino}pyridine-4-carboxylic acid] | > 10000 nM | < 100 nM | < 100 nM | 
O=C(O)c1ccncc1Nc1nn(CC2CCCO2)c2ccc(F)cc12 (centres unmarked) [Example 21, 3-{[5-fluoro-1-(tetrahydrofuran-2-ylmethyl)-1H-indazol-3-yl]amino}pyridine-4-carboxylic acid] | 1000 to 10000 nM | < 100 nM | < 100 nM | 
O=C(O)c1ccncc1Nc1nn(CC(F)(F)F)c2ccc(F)cc12 [Example 23, 3-{[5-fluoro-1-(2,2,2-trifluoroethyl)-1H-indazol-3-yl]amino}pyridine-4-carboxylic acid] | 1000 to 10000 nM | < 100 nM | < 100 nM | 
CC(C)Cn1nc(Nc2cnccc2C(=O)O)c2cc(F)ccc21 [Example 25, 3-{[5-fluoro-1-(2-methylpropyl)-1H-indazol-3-yl]amino}pyridine-4-carboxylic acid] | 1000 to 10000 nM | < 100 nM | < 100 nM | 
CCC(C)n1nc(Nc2cnccc2C(=O)O)c2cc(F)ccc21 (centres unmarked) [Example 26, 3-{[5-fluoro-1-(butan-2-yl)-1H-indazol-3-yl]amino}pyridine-4-carboxylic acid] | 1000 to 10000 nM | < 100 nM | < 100 nM | 
O=C(O)c1ccncc1Nc1nn(CC2CCC2)c2ccc(F)cc12 [Example 28, 3-{[1-(cyclobutylmethyl)-5-fluoro-1H-indazol-3-yl]amino}pyridine-4-carboxylic acid] | 100 to 1000 nM | < 100 nM | < 100 nM | 
O=C(O)c1ccncc1Nc1nn(C2CCCC2)c2ccc(F)cc12 [Example 29, 3-[(1-cyclopentyl-5-fluoro-1H-indazol-3-yl)amino]pyridine-4-carboxylic acid] | 100 to 1000 nM | < 100 nM | < 100 nM | 
O=C(O)c1ccncc1Nc1nn(CC2CCCC2)c2ccc(F)cc12 [Example 30, 3-{[1-(cyclopentylmethyl)-5-fluoro-1H-indazol-3-yl]amino}pyridine-4-carboxylic acid] | 1000 to 10000 nM | < 100 nM | < 100 nM | 

SMILES | IC50 (KDM5A/B; [1]) | IC50 (Jarid1A) | IC50 (Jarid1B) | IC50 (KDM5A/B; [2])
CCn1nc(Nc2cnccc2C(=O)O)c2cc(C)ccc21 [Example 36, 3-[(1-ethyl-5-methyl-1H-indazol-3-yl)amino]pyridine-4-carboxylic acid] |  | < 100 nM | < 100 nM | 
CCCn1nc(Nc2cnccc2C(=O)O)c2cc(C)ccc21 [Example 38, 3-[(5-methyl-1-propyl-1H-indazol-3-yl)amino]pyridine-4-carboxylic acid] |  | < 100 nM | < 100 nM | 
Cc1ccc2c(c1)c(Nc1cnccc1C(=O)O)nn2CCC(F)(F)F [Example 39, 3-{[5-methyl-1-(3,3,3-trifluoropropyl)-1H-indazol-3-yl]amino}pyridine-4-carboxylic acid] |  | < 100 nM | < 100 nM | 
CNCCCCCn1nc(Nc2cnccc2C(=O)O)c2cc(F)ccc21 [Example 46, 3-({5-fluoro-1-[5-(methylamino)pentyl]-1H-indazol-3-yl}amino)pyridine-4-carboxylic acid, trifluoroacetic acid salt] |  |  |  | > 10000 nM
CN(C)CC#CCn1nc(Nc2cnccc2C(=O)O)c2cc(F)ccc21 [Example 49, 3-({1-[4-(dimethylamino)but-2-yn-1-yl]-5-fluoro-1H-indazol-3-yl}amino)pyridine-4-carboxylic acid, trifluoroacetic acid salt] |  |  |  | > 10000 nM
CCCn1cc(Nc2cnccc2C(=O)O)c2cc(F)ccc21 [Example 57, 3-[(5-fluoro-1-propyl-1H-indol-3-yl)amino]pyridine-4-carboxylic acid] |  | < 100 nM | < 100 nM | 
O=C(O)c1ccncc1Nc1nn([C@H]2CCNC2)c2ccc(F)cc12 [Example 60, 3-({5-fluoro-1-[(3S)-pyrrolidin-3-yl]-1H-indazol-3-yl}amino)pyridine-4-carboxylic acid] | 1000 to 10000 nM |  |  | 
O=C(O)c1ccncc1Nc1nn([C@@H]2CCNC2)c2ccc(F)cc12 [Example 61, 3-({5-fluoro-1-[(3R)-pyrrolidin-3-yl]-1H-indazol-3-yl}amino)pyridine-4-carboxylic] | 1000 to 10000 nM |  |  | 
O=C(O)c1ccncc1Nc1nn(C2CCOCC2)c2ccc(F)cc12 [Example 62, 3-{[5-fluoro-1-(tetrahydro-2H-pyran-4-yl)-1H-indazol-3-yl]amino}pyridine-4-carboxylic acid] |  | < 100 nM | < 100 nM | 
O=C(O)c1ccncc1Nc1nn(C2CCCOC2)c2ccc(F)cc12 (centres unmarked) [Example 63, 3-{[5-fluoro-1-(tetrahydro-2H-pyran-3-yl)-1H-indazol-3-yl]amino}pyridine-4-carboxylic acid] |  | < 100 nM | < 100 nM | 
O=C(O)c1ccncc1Nc1cn(C2CCOC2)c2ccc(F)cc12 (centres unmarked) [Example 68, 3-{[5-fluoro-1-(tetrahydrofuran-3-yl)-1H-indol-3-yl]amino}pyridine-4-carboxylic acid] |  | < 100 nM | < 100 nM | 
N#CNC(=O)c1ccncc1Nc1nn([C@H]2CCOC2)c2ccc(F)cc12 [Example 70, N-cyano-3-({5-fluoro-1-[(3S)-tetrahydrofuran-3-yl]-1H-indazol-3-yl}amino)pyridine-4-carboxamide] |  | < 100 nM | < 100 nM | 
N#CNC(=O)c1ccncc1Nc1nn(CCN2CCC(F)(F)C2)c2ccc(F)cc12 [Example 72, N-cyano-3-({1-[2-(3,3-difluoropyrrolidin-1yl)ethyl]-5-fluoro-1H-indazol-3-yl}amino)pyridine-4-carboxamide] |  | < 100 nM | < 100 nM | 
N#CNC(=O)c1ccncc1Nc1nn(CCN2CCC(F)(F)CC2)c2ccc(F)cc12 [Example 74, N-cyano-3-({1-[2-(4,4-difluoropiperidin-1yl)ethyl]-5-fluoro-1H-indazol-3-yl}amino)pyridine-4-carboxamide] |  | < 100 nM | < 100 nM | 
CC(C)Cn1nc(Nc2cnccc2C(=O)NC#N)c2cc(F)ccc21 [Example 75, N-cyano-3-{[5-fluoro-1-(2-methylpropyl)-1H-indazol-3-yl]amino}pyridine-4-carboxamide] |  | < 100 nM | < 100 nM | 
CN(C)CCCCn1nc(Nc2cnccc2C(=O)NC#N)c2cc(F)ccc21 [Example 76, N-cyano-3-({1-[4-(dimethylamino)butyl]-5-fluoro-1H-indazol-3-yl}amino)pyridine-4-carboxamide] |  | < 100 nM | < 100 nM | 
N#CNC(=O)c1ccncc1Nc1nn(CCN2CCCC2)c2ccc(Cl)cc12 [Example 79, N-cyano-3-({5-chloro-1-[2-(pyrrolidin-1-yl)ethyl]-1H-indazol-3-yl}amino)pyridine-4-carboxamide] |  | < 100 nM | < 100 nM | 
